{"source": "patent US20230002446A1", "about": "“ANTI-INFLAMMATORY AGENTS” (The University of Sydney, priority 2019, published 2023)", "key": {"[1]": {"system": "full thickness human skin explants", "procedure": "RP23^AF594 in a stock emulsion was applied topically to full thickness human skin explants and cultured for 24 hours. Frozen sections were analysed by fluorescence microscopy.\nRP23^AF594 was formulated for topical application in an adapted stock emulsion consisting of dimethicone, liquid paraffin, 4-chloro-3-methylphenol, cetrimide and octadecan-1-ol. This was applied topically (7 mg/cm^2, 10 nmol RP23) to full thickness human skin explants and cultured for 24 hours. Frozen sections were prepared for and analysed by fluorescence microscopy."}, "C57BL/6 mice": {"system": "C57BL/6 mice", "assay": "contact hypersensitivity model (DNFB-induced contact dermatitis)", "type": "in vivo", "experimental": "FIG. 2—Peptide administration reduces inflammation in a mouse model of contact dermatitis and reduces myeloid inflammatory infiltrate. (A) Experimental outline of DNFB-induced contact dermatitis. (B) Ear thickness of peptide RP23 (SEQ ID NO:12) treated mice, repeated 3 times. […] Data are presented as mean±S.E.M. Statistical significance was determined (B) by multiple t tests (C) by ANOVA with Dunnett's multiple comparison test, *p<0.05, **p<0.01, ***p<0.001.\nFIG. 3—The peptide effect is dependent on the peptide sequence and dose. (A) PBS, scrambled peptide or peptide MUC1SP ([…]; SEQ ID NO: 3) was injected subcutaneously seven days prior to sensitising C57BL/6 mice (n=5) with DNFB on the abdomen. […] (B) A comparison of the immunosuppressive effect of peptide RP23 (SEQ ID NO:12) and MUC1SP (SEQ ID NO: 3). (C) SEQ ID NO:12 suppressed immunity in a dose dependent manner. (D) Addition of GM-CSF to the SEQ ID NO:12 injection abrogated the immune suppression. Data are the means±S.E.M.\nFIG. 8—Effects of peptide variants on the inflammatory response. Mice received one injection of PBS or one of the following peptides (10 nmol) subcutaneously at the abdomen (A) peptide RP23 (SEQ ID NO: 12), peptide AF594-RP23 (SEQ ID NO: 21), peptide K4-G3-MUC1SP (SEQ ID NO:22) or MUC1SP C fragment (SEQ ID NO: 2). Five days later, mice were challenged with DNFB at a distal site, on the ears. The thickness of the ears was measured over 72 hours.\nFIG. 9—Effects of further peptide variants, without N-terminal methionine, on the inflammatory response in a model of contact dermatitis. Mice received one injection of PBS, RP23 (SEQ ID NO:12) (10 nmol) or one of the peptide variants indicated in the table including SEQ ID NO: 32 and 35 as described herein (equivalent molar amount of RP23), subcutaneously at the abdomen. Photoleucine replaces leucine where indicated, these molecules used for photo-crosslinking studies. Seven days later, abdominal skin was sensitised with a contact irritant (DNFB) and five days later, mice were challenged with DNFB at a distal site, on the ears. (A) Specific increase in ear thickness over 72 hours, data are the means+/−SEM (n=6). Statistical significance was determined by ANOVA with Dunnett's multiple comparison test to PBS only control, **p<0.01. (B) Specific increase in ear thickness at 24 hours post-challenge. Data are the means+/−SEM (n=6). Statistical significance was determined by t-test to relevant control, as indicated, *p<0.05, **p<0.01, ns=not significant.\nThe abdomens of 8-week old female C57BL/6 mice (Australian BioResources) were coarse shaved. A minimum of 24 hours later, RP23 (SEQ ID NO:12) was delivered via sub-cutaneous injection at the abdomen in 50 μl phosphate buffered saline. Seven days later, mice were topically sensitised to 1-fluoro-2,4-dinitrobenzene (DNFB, 0.5 vol %) in olive oil/acetone (1:4, v/v, 30 μl) via application to the shaved abdomen. Five days after sensitisation, mice were challenged on the ears with topical DNFB (0.25 vol %) in olive oil/acetone (1:4, v/v, 15 μl per ear). Ear thickness was measured daily using manual callipers from immediately before challenge, up to 96 hours post challenge. Positive controls for ear swelling consisted of mice that were injected with PBS instead of RP23. Negative or irritant controls consisted of a group of mice that received the DNFB challenge, but not the sensitisation. The average of the change in ear thickness from this control group was subtracted from the change in ear thickness of other samples to account for non-specific irritation due to the application of DNFB, olive oil and acetone.\nThe inventors then conducted additional in vivo studies, using a model of contact hypersensitivity, to determine the portion of RP23 responsible for its immunomodulatory activity. Mice received one injection of peptide (10 nmol) subcutaneously at the abdomen, seven days prior to sensitisation of the skin with a contact irritant (DNFB). […]"}}, "note": "Where a SMILES comes first, the peptide text is derived from it. [ ]: non-standard residue; d: D form. AEEA = NCCOCCOCC(=O)O", "data": [{"smiles": "CSCC[C@H](NC(=O)COCCOCCNC(=O)[C@H](CCCCN)NC(=O)[C@H](CCCCN)NC(=O)[C@H](CCCCN)NC(=O)[C@@H](N)CCCCN)C(=O)N[C@H](C(=O)N1CCC[C@H]1C(=O)NCC(=O)N[C@H](C(=O)N[C@@H](CCC(N)=O)C(=O)N[C@@H](CO)C(=O)N1CCC[C@H]1C(=O)N[C@@H](Cc1ccccc1)C(=O)N[C@@H](Cc1ccccc1)C(=O)N[C@@H](CC(C)C)C(=O)N[C@@H](CC(C)C)C(=O)N[C@@H](CC(C)C)C(=O)N[C@@H](CC(C)C)C(=O)N[C@@H](CC(C)C)C(=O)N[C@H](C(=O)N[C@H](C(=O)N[C@@H](CC(C)C)C(=O)N[C@H](C(=O)N[C@H](C(=O)N[C@H](C(=O)O)C(C)C)C(C)C)[C@@H](C)O)C(C)C)[C@@H](C)O)[C@@H](C)O)[C@@H](C)O", "note": "[RP23] (H-KKKK[AEEA]MTPGTQSPFFLLLLLTVLTVV-OH)", "values": [{"measurement": "penetration of human skin when topically applied", "setting": "[1]", "value": "able to penetrate the stratum corneum and basement membrane"}, {"measurement": "inflammatory response (ear thickness over 72 hours)", "setting": "C57BL/6 mice; 10 nmol subcutaneously at the abdomen, compared to PBS (FIG. 8)", "value": "led to a reduced inflammatory response"}, {"measurement": "immune suppression compared to SEQ ID NO: 3 (MUC1SP)", "setting": "C57BL/6 mice; FIG. 3b", "value": "without significantly altering immune suppression"}, {"measurement": "suppression of ear swelling with GM-CSF included", "setting": "C57BL/6 mice; GM-CSF added to the injection (FIG. 3d)", "value": "abrogated much of the suppression"}, {"measurement": "reduction in ear swelling compared to controls", "setting": "C57BL/6 mice; dose-response, 2, 5 or 10 nmol", "value": "up to 100%"}, {"measurement": "elicitation of inflammation (ear thickness)", "setting": "C57BL/6 mice; single nanomolar injection prior to sensitisation", "value": "significantly suppress elicitation of inflammation"}, {"measurement": "inflammatory myeloid cell skin infiltrate", "setting": "C57BL/6 mice; single nanomolar injection prior to sensitisation, flow cytometry 72 hours post challenge", "value": "reduction"}]}]}
